Experimental data: article PMC10220285, “Development of an assay pipeline for the discovery of novel small molecule inhibitors of human glutathione peroxidases GPX1 and GPX4” (Redox Biology, 2023)
Structures can show the parent of a compound that is named as a salt.

Key:
[1] = molecular target: T1, GPX4 (Homo sapiens, UniProt P36969); assay: GR-coupled GPX4 activity assay (NADPH fluorescence, CHP substrate); type: biochemical; conditions: IC50 of resulting CRC, Table 2; read-out: IC50 GPx4
T1 construct: made in house; host or cells: E. coli
T1 sequence (P36969 1-170 isoform P36969-2): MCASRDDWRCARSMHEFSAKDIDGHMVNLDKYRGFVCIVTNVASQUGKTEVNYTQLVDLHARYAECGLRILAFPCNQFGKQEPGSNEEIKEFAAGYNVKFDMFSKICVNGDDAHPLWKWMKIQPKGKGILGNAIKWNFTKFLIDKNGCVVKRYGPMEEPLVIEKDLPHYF
Protocol: (§1) The compound plates were prepared as described previously. Purified recombinant human GPX1, GPX2, GPX4, GR, and TXNRD1 were produced and purified as previously reported [[48], [49], [50]]. As production of GPX2 was not optimized at the onset of screening, only GPX1 and GPX4 underwent library screening, and GPX2 was used as a follow-up.
(§2) Follow-up and orthogonal assays were run in quadruplicate unless otherwise stated. Assay schemes are illustrated in Fig. 1.
(§3) To measure GPX activity, assays were performed in 1536-well format in black medium-binding solid-bottom plates (Greiner). These assay conditions were optimized for high-throughput screening from an assay first described by Paglia and Valentine. GPX activity is measured indirectly by coupling the reaction with GR whereby GPX reduces hydroperoxide by oxidizing two GSH to GSSG and the oxidized glutathione is recycled to its reduced state by GR and NADPH (Fig. 1B). The rate of consumption of NADPH is directly proportional to the activity of GPX and can be measured by the decrease in fluorescence at 340 nm/450 nm.
(§4) First, 3 μL of enzyme in TES assay buffer (50 mM Tris-HCl, 2 mM EDTA (pH 7.5), 150 mM NaCl with enzyme [10 nM GPX1, 200 nM GPX4 ] and BSA [0.01%]) was added to columns 3–48 of 1536-well plates using a BioRAPTR Flying Reagent Dispenser (Let's Go Robotics (LGR), Carlsbad, CA). A no-enzyme control (0.01% BSA in TES assay buffer) was added to columns 1–2. Compounds (25 nL, library and DMSO controls) were added to each well with a pin tool (Kalypsys), and the plates were incubated for 30 min at room temperature before 1 μL of master mix (100 nM GR, 1 mM GSH, 0.5 mM NADPH in TES buffer) was added. 1 μL of cumene hydroperoxide (CHP) ([0.5 mM] in 50% EtOH) was then added within 5 min to initiate the reaction. Fluorescence at 340/450 nm was measured using a ViewLux multimodal detector (PerkinElmer, Waltham, MA) at initial t = 0 and endpoint t = 15 min (GPX1) or t = 20 min (GPX4).
(§5) Follow-up confirmation assays were also run in 96-well format using medium binding clear 96-well SpectraPlate microplates (PerkinElmer) and NADPH absorbance at 340 nm was measured every 30 s for 30 min using an Infinite® M Nano (Tecan).
(§6) Percent activity was determined by first calculating delta RFU (decrease in fluorescence between t = 0 and t = 20/30 min in primary GPX, GR counter-screen, and TXNRD1 assays, or increase in fluorescence between t = 0 and t = 20 min in the Monobromobimane GPX endpoint assay), and normalizing enzyme activity using median delta RFU values for DMSO-treated enzyme control, and DMSO-treated no-enzyme controls.
(§7) Compound inhibitory activity in the qHTS assays was determined by plotting dose-response data for each sample and fitting with a four-parameter logistic fit to assess IC50 values, efficacy (maximal response), and AUC (area under the curve), as previously described. Hits were classified by the quality of the concentration-response curves (CRC). Curve classes −1.1 and −1.2 being the highest-confidence actives with complete CRCs and classes −2.1 and −2.2 being lower-confidence actives with incomplete CRCs.

[2] = molecular target: T2, GPX1 (Homo sapiens, UniProt P07203); assay: GR-coupled GPX1 activity assay (NADPH fluorescence, CHP substrate); type: biochemical; conditions: IC50 of resulting CRC, Table 2; read-out: IC50 GPx1
T2 construct: made in house; host or cells: E. coli
T2 sequence (P07203 1-203): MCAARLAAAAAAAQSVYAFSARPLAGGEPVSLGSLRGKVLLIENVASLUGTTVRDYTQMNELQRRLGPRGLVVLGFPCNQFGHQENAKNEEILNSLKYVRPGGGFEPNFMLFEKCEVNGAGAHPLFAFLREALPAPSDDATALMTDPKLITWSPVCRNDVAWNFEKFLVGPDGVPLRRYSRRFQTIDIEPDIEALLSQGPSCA
Protocol: as §1, §2, §3, §4, §5, §6, §7

[3] = molecular target: T3, human GPX2 (Homo sapiens, UniProt P18283); assay: GPX2 activity assay (follow-up isoform specificity); type: biochemical; conditions: IC50 of resulting CRC, Table 2
T3 construct: made in house
T3 sequence (P18283 1-190): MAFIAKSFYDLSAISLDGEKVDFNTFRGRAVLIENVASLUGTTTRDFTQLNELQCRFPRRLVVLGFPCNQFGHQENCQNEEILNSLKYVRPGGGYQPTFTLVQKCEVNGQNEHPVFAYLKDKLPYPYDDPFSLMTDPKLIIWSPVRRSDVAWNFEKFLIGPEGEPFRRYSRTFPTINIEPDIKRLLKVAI
Protocol: as §1, §2
Previous work has shown similarities in the substrate specificities of GPX1 and GPX2, and a more unique substrate profile of GPX4 [8].
The GPX2 isoform of human selenoprotein GPXs is found in epithelial cells and has similar substrate specificity with GPX1, but not as much with GPX4 [8]. Additionally, GPX1 and GPX2 both form homotetramers and share similarities in structural homology, although GPX2 has a much slower turnover rate.

[4] = molecular target: T2, GPX1; assay: nanoDSF thermal stabilization, GPX1; type: binding; conditions: for GSH Binding (ΔTm) GPx1; shift in nanoDSF melting temperature / Tm GPX1 (nanoDSF): first or only inflection point; for thermal stabilization of GPX1: nanoDSF
Protocol: (§8) Thermal stabilization of enzyme ± DMSO or ± compound was carried out in a Prometheus NT.48 instrument (NanoTemper Technologies) with an excitation wavelength of 280 nm. Intrinsic fluorescence at 330 nm and 350 nm was monitored while heating. Capillaries were filled with ∼10 μL of a solution of GPX1/4 (1 mg/mL), ± small molecule (100 μM) or DMSO, in TES buffer and placed into the instrument. The capillaries were subjected to a temperature range from 30 to 90 °C at a ramp rate of 2 °C/min. The ratio of the recorded emission intensities (350nm/330 nm) were plotted as a function of temperature. This ratio and first derivatives were calculated using the NanoTemper software and were plotted using GraphPad Prism.

[5] = molecular target: T1, GPX4; assay: nanoDSF thermal stabilization, GPX4; type: binding; conditions: first or only inflection point; for GSH Binding (ΔTm) GPx4; shift in nanoDSF melting temperature: 100 μM small molecule vs DMSO control; for Tm GPX4 (nanoDSF): 100 μM, DMSO control Tm 48.2°C
Protocol: as §8

[6] = 100 μM small molecule vs DMSO control

SMILES: Cc1c(N(C)CS(=O)(=O)O)c(=O)n(-c2ccccc2)n1C [Metamizole (dipyrone)]
- IC50 [1]: 8.8 µM
- IC50 [2]: 8.1 µM
- IC50 [3]: 3.3 µM

SMILES: O=C(N[C@H]1CCS[C@H]2CCC[C@@H](C(=O)O)N2C1=O)[C@@H](S)Cc1ccccc1 [Omapatrilat]
- GSH Binding (ΔTm) GPx1; shift in nanoDSF melting temperature [4, 6]: +6.3 °C
- GSH Binding (ΔTm) GPx1; shift in nanoDSF melting temperature, second inflection point ([4]; 100 μM small molecule vs DMSO control, second inflection point): +12.8 °C
- Tm GPX1 (nanoDSF), second inflection point ([4]; 100 μM, DMSO control Tm 42.5°C): 55.3 °C
- Tm GPX1 (nanoDSF) ([4]; 100 μM, DMSO control Tm 42.5°C): 48.8 °C
- thermal stabilization of GPX1 [4]: significant shifts in the melting temperature of GPX1
- IC50 [2]: 5.7 µM
- IC50 [3]: 4.7 µM

SMILES: O=C(NNCS(=O)(=O)O)c1ccncc1 [Isoniazid sodium methanesulfonate]
- IC50 [1]: 4.6 µM
- IC50 [2]: 5.2 µM
- IC50 [3]: 1.7 µM

SMILES: O=C(O)C(S)C(S)C(=O)O (stereo not drawn) [2,3-Dimercaptosuccinic acid]
- GSH Binding (ΔTm) GPx1; shift in nanoDSF melting temperature [4, 6]: -0.9 °C
- Tm GPX1 (nanoDSF) ([4]; 100 μM, DMSO control Tm 42.5°C): 41.6 °C
- IC50 [2]: 5.2 µM
- IC50 [3]: 2.3 µM

SMILES: CO[C@@]1(NC(=O)Cc2cccs2)C(=O)N2C(C(=O)O)=C(COC(N)=O)CS[C@@H]21 [Cefoxitin sodium salt]
- GSH Binding (ΔTm) GPx1; shift in nanoDSF melting temperature [4, 6]: +0.4 °C
- Tm GPX1 (nanoDSF) ([4]; 100 μM, DMSO control Tm 42.5°C): 42.9 °C
- thermal stabilization of GPX1 [4]: did not show any thermal stabilization
- IC50 [2]: 9.3 µM
- IC50 [3]: > 20 µM

SMILES: COc1ccc2[nH]c([S+]([O-])Cc3ncc(C)c(OC)c3C)nc2n1 (stereo not drawn) [Tenatoprazole]
- GSH Binding (ΔTm) GPx1; shift in nanoDSF melting temperature [4, 6]: +7.5 °C
- Tm GPX1 (nanoDSF) ([4]; 100 μM, DMSO control Tm 42.5°C): 50.0 °C
- thermal stabilization of GPX1 [4]: significant shifts in the melting temperature of GPX1
- IC50 [2]: 8.9 µM
- IC50 [3]: 7.7 µM

SMILES: Nc1nc(/C(=C/CC(=O)O)C(=O)N[C@@H]2C(=O)N3C(C(=O)O)=CCS[C@H]23)cs1 [Ceftibuten]
- GSH Binding (ΔTm) GPx1; shift in nanoDSF melting temperature [4, 6]: -0.2 °C
- Tm GPX1 (nanoDSF) ([4]; 100 μM, DMSO control Tm 42.5°C): 42.3 °C
- thermal stabilization of GPX1 [4]: did not show any thermal stabilization
- IC50 [2]: 18.5 µM
- IC50 [3]: 10 µM

SMILES: CC1(C)CCC(c2ccc(Cl)cc2)=C(CN2CCN(c3ccc(C(=O)NS(=O)(=O)c4ccc(N[C@H](CCN5CCOCC5)CSc5ccccc5)c(S(=O)(=O)C(F)(F)F)c4)cc3)CC2)C1 [Navitoclax (ABT-263), Navitoclax]
- GSH Binding (ΔTm) GPx4; shift in nanoDSF melting temperature [5]: +3.2 °C
- Tm GPX4 (nanoDSF) [5]: 51.4 °C
- IC50 [1]: 11.4 µM

SMILES: N[C@@H](CCC(=O)N[C@@H](CS)C(=O)NCC(=O)O)C(=O)O [Glutathione]
- GSH Binding (ΔTm) GPx4; shift in nanoDSF melting temperature [5]: +4.7 °C
- Tm GPX4 (nanoDSF) [5]: 52.9 °C
- GSH Binding (ΔTm) GPx1; shift in nanoDSF melting temperature [4, 6]: +3.6 °C
- Tm GPX1 (nanoDSF) ([4]; 100 μM, DMSO control Tm 42.5°C): 46.1 °C

SMILES: C=C[C@@H]1C[C@]1(NC(=O)[C@@H]1C[C@@H]2CN1C(=O)[C@H](C(C)(C)C)NC(=O)O[C@@H]1C[C@H]1CCCCCc1nc3ccc(OC)cc3nc1O2)C(=O)NS(=O)(=O)C1CC1 [Grazoprevir (MK-5172), Grazoprevir]
- GSH Binding (ΔTm) GPx4; shift in nanoDSF melting temperature [5]: +4.1 °C
- Tm GPX4 (nanoDSF) [5]: 52.3 °C
- IC50 [1]: 3.4 µM
